From US20110251286A1, “Crystalline salts and/or co-crystals of O-desmethyltramadol” (GRUENENTHAL GmbH, priority 2010, published 2011)

Assay: Release in artificial intestinal juice
Assay type: physicochemical
Conditions: permeable bag, amount calculated on 100 mg free base
Protocol: Investigations on release were carried out in a Sotax AT7 smart release apparatus with UV measurement (Perkin Elmer photometer).
A vessel with Wood apparatus was used (for intrinsic release).
A pressing of 0.5 cm^2 surface area (diameter 8 mm) was produced with a force of 200 N using approximately 100 mg of active ingredient.
Release was carried out in a release medium, which is composed as described below: • Intestinal juice without pancreas powder, pH 6.8 (analogous to Ph. Eur.); 250.0 ml 6.8 g of potassium dihydrogenphosphate R+0.896 g of NaOH+water to 1000.0 ml.
Release was carried out in a release volume of in each case 500±5 ml at a temperature of the release medium of 37±1° C. with a stirring speed of 100±5 rpm.
The content determination was carried out by means of spectroscopic methods (UV spectroscopy, wavelength: 271 nm, cuvette: 10 mm). Sample taking was carried out manually.
In this release experiment, the individual compounds were placed in a permeable bag in an amount in each case calculated on 100 mg of the free base.
The results, expressed in percent of the substance released, are reproduced in the following tables. In this case, the compounds denote: HCl: hydrochloride; A: cinnamate; B: palmitate; C: decanoate; E: hemi-fumarate and F: hemi-sebacate.

| Compound | Release in artificial intestinal juice, percent of the substance released (t 2 min) [%] | Release in artificial intestinal juice, percent of the substance released (t 4 min) [%] | Release in artificial intestinal juice, percent of the substance released (t 6 min) [%] | Release in artificial intestinal juice, percent of the substance released (t 8 min) [%] | Release in artificial intestinal juice, percent of the substance released (t 10 min) [%] | Release in artificial intestinal juice, percent of the substance released (t 12 min) [%] | Release in artificial intestinal juice, percent of the substance released (t 15 min) [%] | Release in artificial intestinal juice, percent of the substance released (t 30 min) [%] |
| --- | --- | --- | --- | --- | --- | --- | --- | --- |
| CN(C)CC1CCCCC1(O)c1cccc(O)c1.O=C(O)C=Cc1ccccc1 (stereo not drawn) [A-2] | 53.05 | 76.86 | 86.98 | 96.27 | 94.24 | 95.42 | 98.53 | 98.80 |
| CN(C)CC1CCCCC1(O)c1cccc(O)c1.CN(C)CC1CCCCC1(O)c1cccc(O)c1.O=C(O)C=CC(=O)O (stereo not drawn) [E-2] | 95.38 | 96.67 | 95.80 | 96.46 | 96.47 | 96.45 | 96.19 | 96.42 |
| CN(C)C[C@H]1CCCC[C@]1(O)c1cccc(O)c1.Cl [HCl-1] | 99.16 | 99.89 | 98.77 | 101.08 | 100.57 | 100.66 | 99.62 | 101.02 |
| CCCCCCCCCCCCCCCC(=O)O.CN(C)CC1CCCCC1(O)c1cccc(O)c1 [B-1] | 17.63 | 31.60 | 55.36 | 53.71 | 67.26 | 69.49 | 76.13 | 95.50 |
| CN(C)CC1CCCCC1(O)c1cccc(O)c1.O=C(O)C=Cc1ccccc1 (stereo not drawn) [A-1] | 58.49 | 74.11 | 84.48 | 91.49 | 92.24 | 96.63 | 97.34 | 102.44 |
| CN(C)CC1CCCCC1(O)c1cccc(O)c1.CN(C)CC1CCCCC1(O)c1cccc(O)c1.O=C(O)CCCCCCCCC(=O)O (stereo not drawn) [F-1] | 90.31 | 95.86 | 98.37 | 99.10 | 98.48 | 98.55 | 99.15 | 98.74 |
